Reference: patent US20020051978A1, “Methods and compositions for the identification, assessment, prevention and therapy of human cancers” (priority 2000, published 2002)
Read-outs that look alike come from different tables or passages of the source.

Tests used:
[1] = system: 60 cancer cell lines (NCI 60 cancer cell line series); assay: NCI-DTP in vitro cancer screen, sulforhodamine B (SRB) growth inhibition, 48 hour exposure; type: cell-based, human; parameters: key to sensitivity class Ovarian OVCAR-8 CL6005 / sensitivity class Ovarian SK-OV-3 CL6011 / sensitivity class Prostate DU-145 CL11003 / sensitivity class NSCLC NCI-H522 CL1003 / sensitivity class Ovarian IGROV1 CL6010 / sensitivity class Ovarian OVCAR-4 CL6002 / sensitivity class Prostate PC-3(I) CL11001 / sensitivity class Renal A498 CL9013 / sensitivity class Renal SN12C CL9008: sensitivity class: 1 = Low, 2 = Medium, 3 = High
Outline: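 Values come from the NCI-DTP screen database: -log GI50, the concentration giving 50% growth inhibition, derived from SRB cell-mass dose-response curves. Each line seeded at its own density, treated day 1 at five ten-fold-spaced doses in duplicate wells, stained after 48 h.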

[2] = system: 60 cancer cell lines (NCI 60 cancer cell line series); conditions: cited from earlier work

## O=C1c2c(O)ccc(O)c2C(=O)c2c(NCCNCCO)ccc(NCCNCCO)c21 [Mitoxantrone]
[1]; Breast BT-549 (CL5013)
  classification of cell line as Low(1), Medium(2) or High(3) sensitivity to compound: 2
[1]; Breast HS-578T CL5006
  classification of cell line as Low(1), Medium(2) or High(3) sensitivity to compound: 2
[1]; Breast MCF7(I) (CL5001)
  classification of cell line as Low(1), Medium(2) or High(3) sensitivity to compound: 3
[1]; Breast MCF7/ADRr (CL5002)
  classification of cell line as Low(1), Medium(2) or High(3) sensitivity to compound: 1
[1]; Breast MDA-MB-231 CL5005
  classification of cell line as Low(1), Medium(2) or High(3) sensitivity to compound: 1
[1]; Breast MDA-MB-435 (CL5011)
  classification of cell line as Low(1), Medium(2) or High(3) sensitivity to compound: 1
[1]; Breast MDA-N CL5012
  classification of cell line as Low(1), Medium(2) or High(3) sensitivity to compound: 1
[1]; Breast T-47D (CL5014)
  classification of cell line as Low(1), Medium(2) or High(3) sensitivity to compound: 2
[1]; CNS SF-268 CL12014
  classification of cell line as Low(1), Medium(2) or High(3) sensitivity to compound: 2
[1]; CNS SF-295 CL12015
  classification of cell line as Low(1), Medium(2) or High(3) sensitivity to compound: 2
[1]; CNS SF-539 CL12016
  classification of cell line as Low(1), Medium(2) or High(3) sensitivity to compound: 3
[1]; CNS SNB-19 (CL12002)
  classification of cell line as Low(1), Medium(2) or High(3) sensitivity to compound: 3
[1]; CNS SNB-75(I) CL12005
  classification of cell line as Low(1), Medium(2) or High(3) sensitivity to compound: 3
[1]; CNS U251(I) CL12009
  classification of cell line as Low(1), Medium(2) or High(3) sensitivity to compound: 3
[1]; Colon COLO-250 CL4010
  classification of cell line as Low(1), Medium(2) or High(3) sensitivity to compound: 2
[1]; Colon HCC-2998 (CL4002)
  classification of cell line as Low(1), Medium(2) or High(3) sensitivity to compound: 1
[1]; Colon HCT-15 CL4015
  classification of cell line as Low(1), Medium(2) or High(3) sensitivity to compound: 1
[1]; Colon HCT-116 (CL4003)
  classification of cell line as Low(1), Medium(2) or High(3) sensitivity to compound: 2
[1]; Colon HT29(I) CL4001
  classification of cell line as Low(1), Medium(2) or High(3) sensitivity to compound: 1
[1]; Colon KM12 (CL4017)
  classification of cell line as Low(1), Medium(2) or High(3) sensitivity to compound: 1
[1]; Colon SW-620 (CL4009)
  classification of cell line as Low(1), Medium(2) or High(3) sensitivity to compound: 2
[1]; Leukemia CCRF-CEM(I) (CL7003)
  classification of cell line as Low(1), Medium(2) or High(3) sensitivity to compound: 3
[1]; Leukemia HL-60(I) (CL7008)
  classification of cell line as Low(1), Medium(2) or High(3) sensitivity to compound: 3
[1]; Leukemia K562(I) CL7005
  classification of cell line as Low(1), Medium(2) or High(3) sensitivity to compound: 2
[1]; Leukemia MOLT-4 (CL7006)
  classification of cell line as Low(1), Medium(2) or High(3) sensitivity to compound: 3
[1]; Leukemia RPMI-8226(I) (CL7010)
  classification of cell line as Low(1), Medium(2) or High(3) sensitivity to compound: 2
[1]; Leukemia SR CL7019
  classification of cell line as Low(1), Medium(2) or High(3) sensitivity to compound: 3
[1]; Melanoma LOX IMVI CL10001
  classification of cell line as Low(1), Medium(2) or High(3) sensitivity to compound: 2
[1]; Melanoma M14 (CL10014)
  classification of cell line as Low(1), Medium(2) or High(3) sensitivity to compound: 2
[1]; Melanoma MALME-3M CL10002
  classification of cell line as Low(1), Medium(2) or High(3) sensitivity to compound: 2
[1]; Melanoma SK-MEL-2 (CL10005)
  classification of cell line as Low(1), Medium(2) or High(3) sensitivity to compound: 1
[1]; Melanoma SK-MEL-5 (CL10007)
  classification of cell line as Low(1), Medium(2) or High(3) sensitivity to compound: 2
[1]; Melanoma SK-MEL-28 (CL10008)
  classification of cell line as Low(1), Medium(2) or High(3) sensitivity to compound: 1
[1]; Melanoma UACC-62 (CL10020)
  classification of cell line as Low(1), Medium(2) or High(3) sensitivity to compound: 2
[1]; Melanoma UACC-257 (CL10021)
  classification of cell line as Low(1), Medium(2) or High(3) sensitivity to compound: 1
[1]; NSCLC A549/ATCC (CL1004)
  classification of cell line as Low(1), Medium(2) or High(3) sensitivity to compound: 3
[1]; NSCLC EKVX (CL1008)
  classification of cell line as Low(1), Medium(2) or High(3) sensitivity to compound: 1
[1]; NSCLC HOP-62 (CL1026)
  classification of cell line as Low(1), Medium(2) or High(3) sensitivity to compound: 3
[1]; NSCLC HOP-92 (CL1029)
  classification of cell line as Low(1), Medium(2) or High(3) sensitivity to compound: 3
[1]; NSCLC NCI-H226 CL1013
  classification of cell line as Low(1), Medium(2) or High(3) sensitivity to compound: 3
[1]; cell line NSCLC NCI-H23(I), CL1001
  sensitivity class NSCLC NCI-H23(I) CL1001: 2
[1]; cell line NSCLC NCI-H332M, CL1017
  sensitivity class NSCLC NCI-H332M CL1017: 1
[1]; cell line NSCLC NCI-H460, CL1021
  sensitivity class NSCLC NCI-H460 CL1021: 3
[1]; cell line NSCLC NCI-H522, CL1003
  sensitivity class NSCLC NCI-H522 CL1003: 2
[1]; cell line Ovarian IGROV1, CL6010
  sensitivity class Ovarian IGROV1 CL6010: 2
[1]; cell line Ovarian OVCAR-3, CL6001
  sensitivity class Ovarian OVCAR-3 CL6001: 1
[1]; cell line Ovarian OVCAR-4, CL6002
  sensitivity class Ovarian OVCAR-4 CL6002: 1
[1]; cell line Ovarian OVCAR-5, CL6003
  sensitivity class Ovarian OVCAR-5 CL6003: 1
[1]; cell line Ovarian OVCAR-8, CL6005
  sensitivity class Ovarian OVCAR-8 CL6005: 2
[1]; cell line Ovarian SK-OV-3, CL6011
  sensitivity class Ovarian SK-OV-3 CL6011: 2
[1]; cell line Prostate DU-145, CL11003
  sensitivity class Prostate DU-145 CL11003: 2
[1]; cell line Prostate PC-3(I), CL11001
  sensitivity class Prostate PC-3(I) CL11001: 2
[1]; cell line Renal 786-O, CL9018
  sensitivity class Renal 786-O CL9018: 2
[1]; cell line Renal A498, CL9013
  sensitivity class Renal A498 CL9013: 2
[1]; cell line Renal ACHN, CL9023
  sensitivity class Renal ACHN CL9023: 3
[1]; cell line Renal CAKI-1, CL9015
  sensitivity class Renal CAKI-1 CL9015: 3
[1]; cell line Renal RXF-393, CL9016
  sensitivity class Renal RXF-393 CL9016: 2
[1]; cell line Renal SN12C, CL9008
  sensitivity class Renal SN12C CL9008: 3
[1]; cell line Renal TK10, CL9024
  sensitivity class Renal TK10 CL9024: 1
[1]; cell line Renal UO-31, CL9004
  sensitivity class Renal UO-31 CL9004: 1
[2]; Breast BT-549 (CL5013)
  -Log (GI50): 7.2
[2]; Breast HS-578T CL5006
  -Log (GI50): 7.0
[2]; Breast MCF7(I) (CL5001)
  -Log (GI50): 8.4
[2]; Breast MCF7/ADRr (CL5002)
  -Log (GI50): 5.4
[2]; Breast MDA-MB-231 CL5005
  -Log (GI50): 6.7
[2]; Breast MDA-MB-435 (CL5011)
  -Log (GI50): 6.3
[2]; Breast MDA-N CL5012
  -Log (GI50): 6.6
[2]; Breast T-47D (CL5014)
  -Log (GI50): 7.2
[2]; CNS SF-268 CL12014
  -Log (GI50): 7.5
[2]; CNS SF-295 CL12015
  -Log (GI50): 7.7
[2]; CNS SF-539 CL12016
  -Log (GI50): 7.8
[2]; CNS SNB-19 (CL12002)
  -Log (GI50): 7.8
[2]; CNS SNB-75(I) CL12005
  -Log (GI50): 7.9
[2]; CNS U251(I) CL12009
  -Log (GI50): 8.0
[2]; Colon COLO-250 CL4010
  -Log (GI50): 7.0
[2]; Colon HCC-2998 (CL4002)
  -Log (GI50): 6.6
[2]; Colon HCT-15 CL4015
  -Log (GI50): 6.6
[2]; Colon HCT-116 (CL4003)
  -Log (GI50): 7.3
[2]; Colon HT29(I) CL4001
  -Log (GI50): 6.6
[2]; Colon KM12 (CL4017)
  -Log (GI50): 6.3
[2]; Colon SW-620 (CL4009)
  -Log (GI50): 7.3
[2]; Leukemia CCRF-CEM(I) (CL7003)
  -Log (GI50): 8.2
[2]; Leukemia HL-60(I) (CL7008)
  -Log (GI50): 8.0
[2]; Leukemia K562(I) CL7005
  -Log (GI50): 6.9
[2]; Leukemia MOLT-4 (CL7006)
  -Log (GI50): 8.3
[2]; Leukemia RPMI-8226(I) (CL7010)
  -Log (GI50): 6.7
[2]; Leukemia SR CL7019
  -Log (GI50): 8.1
[2]; Melanoma LOX IMVI CL10001
  -Log (GI50): 7.7
[2]; Melanoma M14 (CL10014)
  -Log (GI50): 6.9
[2]; Melanoma MALME-3M CL10002
  -Log (GI50): 6.9
[2]; Melanoma SK-MEL-2 (CL10005)
  -Log (GI50): 6.4
[2]; Melanoma SK-MEL-5 (CL10007)
  -Log (GI50): 7.3
[2]; Melanoma SK-MEL-28 (CL10008)
  -Log (GI50): 6.3
[2]; Melanoma UACC-62 (CL10020)
  -Log (GI50): 7.4
[2]; Melanoma UACC-257 (CL10021)
  -Log (GI50): 5.7
[2]; NCSLC NCI-H522 CL1003
  -Log (GI50): 7.3
[2]; NSCLC A549/ATCC (CL1004)
  -Log (GI50): 7.9
[2]; NSCLC EKVX (CL1008)
  -Log (GI50): 6.5
[2]; NSCLC HOP-62 (CL1026)
  -Log (GI50): 7.9
[2]; NSCLC HOP-92 (CL1029)
  -Log (GI50): 7.8
[2]; NSCLC NCI-H23(I) CL1001
  -Log (GI50): 7.2
[2]; NSCLC NCI-H226 CL1013
  -Log (GI50): 7.8
[2]; NSCLC NCI-H332M CL1017
  -Log (GI50): 6.6
[2]; NSCLC NCI-H460 CL1021
  -Log (GI50): 8.2
[2]; Ovarian IGROV1 CL6010
  -Log (GI50): 6.7
[2]; Ovarian OVCAR-3 CL6001
  -Log (GI50): 6.5
[2]; Ovarian OVCAR-4 CL6002
  -Log (GI50): 6.5
[2]; Ovarian OVCAR-5 CL6003
  -Log (GI50): 6.5
[2]; Ovarian OVCAR-8 CL6005
  -Log (GI50): 7.4
[2]; Ovarian SK-OV-3 CL6011
  -Log (GI50): 7.4
[2]; Prostate DU-145 CL11003
  -Log (GI50): 7.5
[2]; Prostate PC-3(I) CL11001
  -Log (GI50): 6.9
[2]; Renal 786-O CL9018
  -Log (GI50): 7.7
[2]; Renal A498 CL9013
  -Log (GI50): 7.2
[2]; Renal ACHN CL9023
  -Log (GI50): 7.9
[2]; Renal CAKI-1 CL9015
  -Log (GI50): 8.0
[2]; Renal RXF-393 CL9016
  -Log (GI50): 7.2
[2]; Renal SN12C CL9008
  -Log (GI50): 8.1
[2]; Renal TK10 CL9024
  -Log (GI50): 6.4
[2]; Renal UO-31 CL9004
  -Log (GI50): 6.5
